Laboratory results published in patent US9657013B2, “Inhibitors of hepatitis B virus covalently closed circular DNA formation and their method of use” (priority 2012, dated 2017).

Columns and labels:
[1] = cytotoxicity assay (MTT, CC50); assay type: cell-based; conditions: human, HepDE19 cells
Protocol: (§1) Cell plates were then incubated with compound dilutions and controls as described above, and addition of 3-[4,5-dimethylthiazol-2-yl]-2,5-diphenyltetrazolium bromide (MTT, Sigma-Aldrich) was added to a final concentration of 0.5 mg/ml (Mosmann, T. 1983). Plates were again incubated at 37° C. for 4 hrs, after which 10% SDS/0.01N HCl was added to each well in a volume equal to the medium (100 μl), followed by overnight incubation. Absorbance was read in the Rainbow spectrophotometer (Tecan US Inc., Durham, N.C.) at 570 nm (reference wavelength of 630 nm), and analyzed with XLfit 4.0 as described above.

HBV cccDNA = test: cccDNA inhibition assay (Southern blot of Hirt DNA); assay type: cell-based, hepatitis B virus; conditions: for inhibition at 3 µM / inhibition at 1 µM / inhibition at 10 µM / inhibition at 30 µM / inhibition at 0.3 µM: Hepatitis B virus, read-out: cccDNA inhibition % Reduction; for inhibition at 30 µM: Concentration 30 μM; for inhibition at 0.3 µM: Concentration 0.3 μM
Protocol: Cell cultures: HepG2.2.15 cells were maintained in DMEM/F12 medium (Mediatech, Manassas, Va.) supplemented with 10% fetal bovine serum, 100 U/ml penicillin and 100 μg/ml streptomycin, plus 400 μg/ml G418. Tetracycline inducible HBV producer cells, specifically HepDE19 and HepDES19 cells, were maintained in the same way as HepG2.2.15, but with the addition of 1 μg/ml tetracycline (Guo, H., D. Jiang, T. Zhou, A. Cuconati, T. M. Block, and J. T. Guo. 2007). To initiate HBV replication and cccDNA formation in HepDE19 and HepDES19 cells, tetracycline was withdrawn from the culture medium and the cells were cultured for the indicated time period.
Viral nucleic acid analysis: Total cellular RNA was extracted with TRIzol reagent (Invitrogen, Grand Island, N.Y.) by following manufacturer's directions. Ten microgram of total cellular RNA was resolved in 1.5% agarose gel containing 2.2 M formaldehyde and transferred onto Hybond-XL membrane (GE Healthcare, Piscataway, N.J.) in 20×SSC buffer. Intracellular hepadnaviral core DNA and cccDNA (Hirt DNA) were extracted as described previously (Guo, H., D. Jiang, T. Zhou, A. Cuconati, T. M. Block, and J. T. Guo. 2007. Guo, H., D. Jiang, T. Zhou, A. Cuconati, T. M. Block, and J. T. Guo. 2007. Guo, H., R. Mao, T. M. Block, and J. T. Guo. 2010. Guo, H., W. S. Mason, C. E. Aldrich, J. R. Saputelli, D. S. Miller, A. R. Jilbert, and J. E. Newbold. 2005). Half of the DNA samples recovered from one well of a 6-well-plate were resolved by electrophoresis into a 1.2% agarose gel and blotted onto Hybond-XL membrane. Membranes were probed with either an α-^32P-UTP (800 Ci/mmol, Perkin Elmer) labeled hepadnaviral minus (detecting DNA) or plus strand (detecting RNA) specific full-length riboprobe and exposed to a phosphorimager screen (Fuji Film, Tokyo, Japan). Hybridization signals were visualized by Typhoon FLA-7000 (GE Healthcare) and quantified with ImageQuantTL software (GE Healthcare). […]
Identification of compounds that inhibits cccDNA accumulation in HepDES19 cells: Compounds were tested on HepDES19 cells, which have a higher level of cccDNA production than HepDE19 cells (Guo, H., D. Jiang, T. Zhou, A. Cuconati, T. M. Block, and J. T. Guo. 2007). Briefly, after withdrawal of tetracycline, HepDES19 cells were left untreated, or were treated with compound at serial concentrations; tetracycline-free media was changed every other day with fresh compound supplementation. The concentration of DMSO in all experimental groups was normalized at 0.1%. The cells were harvested at day 12, viral RNA (top panel), core DNA (middle panel), and Hirt DNA (DP-rcDNA and cccDNA) (bottom panels) were extracted and analyzed by Northern blot and Southern blot, respectively. Shorter exposure of the Hirt DNA blot was used for the quantitative determination of DP-rcDNA signals. […] The reduction between DP-rcDNA and cccDNA was proportional compared with untreated control. […] Liu, C. P. Hu, and C. Chang. 2005. Guo, H., T. Zhou, D. Jiang, A. Cuconati, G. H. Xiao, T. M. Block, and J. T. Guo. 2007. Zhou, T., H. Guo, J. T. Guo, A. Cuconati, A. Mehta, and T. M. Block. 2006).

HepDE19 cells = test: cytotoxicity assay (MTT, CC50); assay type: cell-based
Protocol: as §1

Compound | CC50 [1] [µM] | inhibition at 3 µM (HBV cccDNA; Concentration 3 μM) [%] | inhibition at 10 µM (HBV cccDNA; Concentration 10 μM) [%] | inhibition at 30 µM (HBV cccDNA) [%] | also measured
CN1CCC(CNC(=O)CN(c2cc(C(F)(F)F)ccc2Cl)S(=O)(=O)c2ccccc2)CC1 [CCC-Lu25-61-1] | > 50 | 30 | – | – | –
O=C(CN(c1cc(C(F)(F)F)ccc1Cl)S(=O)(=O)c1ccc(C(F)(F)F)cc1)NCc1ccncc1 [CCC-Lu25-42] | > 50 | 90 | 95 | – | inhibition at 1 µM (HBV cccDNA; Concentration 1 μM): 20%
O=C(NCc1ccncc1)c1cc2ccccc2n1S(=O)(=O)c1ccccc1 [IHVR 13022-1] | > 50 | 60 | 65 | – | inhibition at 1 µM (HBV cccDNA; Concentration 1 μM): 50%
Cc1ccc(S(=O)(=O)N(CC(=O)NCc2ccncc2)c2cc(C(F)(F)F)ccc2Cl)cc1 [CCC-Lu25-38] | > 50 | 95 | 95 | 95 | –
O=C(CN(c1cc(C(F)(F)F)ccc1Br)S(=O)(=O)c1ccccc1)NCc1ccncc1 [CCC-1002-2] | > 50 | 30 | 90 | – | inhibition at 1 µM (HBV cccDNA; Concentration 1 μM): 30%
CC(C)(C)OC(=O)N1CCC(CNC(=O)CN(c2cc(C(F)(F)F)ccc2Cl)S(=O)(=O)c2ccccc2)CC1 [CCC-Lu25-55] | 19.1 | 95 | – | – | –
O=C(CN(c1cc(C(F)(F)F)ccc1F)S(=O)(=O)c1ccccc1)NCc1ccncc1 [CCC-1022-3] | > 50 | 50 | 75 | – | inhibition at 1 µM (HBV cccDNA; Concentration 1 μM): 20%
O=C(CN(c1cc(C(F)(F)F)ccc1Cl)S(=O)(=O)c1ccccc1)NCc1ccncc1 [IHVR-13106] | – | – | – | – | CC50 (HepDE19 cells): > 50 µM; cccDNA inhibition % Reduction (HBV cccDNA; Concentration 1 μM, 1 µM): 0%; cccDNA inhibition % Reduction (HBV cccDNA; Concentration 3 μM, 3 µM): 70%; cccDNA inhibition % Reduction (HBV cccDNA; Concentration 10 μM, 10 µM): 80%
O=C(CN(c1cc(C(F)(F)F)ccc1Cl)S(=O)(=O)c1ccc(C(F)(F)F)cc1Cl)NCc1ccncc1 [CCC-Lu25-50] | 30.2 | 95 | – | – | –
CN(Cc1ccccc1)S(=O)(=O)c1ccc(C(=O)NCc2ccncc2)cc1 [IHVR-13009] | > 50 | 15 | 15 | 30 | –
O=C(CN(c1cc(C(F)(F)F)ccc1Cl)S(=O)(=O)c1ccccc1)NCc1ccncn1 [CCC-Lu25-53] | > 50 | 70 | – | – | –
CC(C)(C)CC(=O)NCCNC(=O)CN(c1cc(C(F)(F)F)ccc1F)S(=O)(=O)c1ccccc1 [CCC-Lu25-56] | 28.4 | 70 | – | – | –
O=C(CN(c1cc(C(F)(F)F)ccc1Cl)S(=O)(=O)c1ccc(Cl)cc1)NCc1ccncc1 [CCC-Lu25-32] | > 50 | 95 | 95 | 95 | –
C[N+]1(C)CCC(CNC(=O)CN(c2cc(C(F)(F)F)ccc2Cl)S(=O)(=O)c2ccccc2)CC1 [CCC-Lu25-61-2] | > 50 | 30 | – | – | –
O=C(CN(c1cc(Cl)ccc1F)S(=O)(=O)c1ccccc1)NCc1ccncc1 [CCC-Lu25-41] | > 50 | 10 | 30 | 40 | –
O=C(CN(c1cc(C(F)(F)F)ccc1Cl)S(=O)(=O)c1ccccc1)NCc1cncnc1 [CCC-Lu25-52] | > 50 | 80 | – | – | –
O=C(CN(c1cc(C(F)(F)F)ccc1Cl)S(=O)(=O)c1ccccc1)NCc1ccncc1 [CCC-Lu25-22] | > 50 | – | 70 | 70 | cccDNA inhibition % Reduction (HBV cccDNA; Concentration 3 μM, 3 µM): 40%
CN(Cc1ccccc1)S(=O)(=O)c1ccc(C(=O)Nc2ccc3ncsc3c2)cc1 [IHVR-13004] | 34.1 | 50 | – | – | inhibition at 0.3 µM (HBV cccDNA): 0%; inhibition at 1 µM (HBV cccDNA; Concentration 1 μM): 0%
O=C(NCc1ccncc1)C1CCCN1S(=O)(=O)c1ccccc1 (stereo not drawn) [IHVR-13108] | > 50 | 70 | 50 | – | inhibition at 1 µM (HBV cccDNA; Concentration 1 μM): 10%
Cc1nc2cc(NC(=O)CN(c3cc(C(F)(F)F)ccc3Cl)S(=O)(=O)c3ccccc3)ccc2s1 [IHVR-13102] | > 50 | 30 | 80 | 30 | –
COc1ccc(S(=O)(=O)N(CC(=O)NCc2ccncc2)c2cc(C(F)(F)F)ccc2Cl)cc1 [CCC-Lu25-39] | 49.2 | 95 | 95 | 95 | –
O=C(CN(c1cc(C(F)(F)F)ccc1Cl)S(=O)(=O)c1ccccc1)N1CCc2cnccc2C1 [CCC-Lu25-54] | > 50 | 50 | – | – | –
O=C(CN(c1cc(C(F)(F)F)ccc1Cl)S(=O)(=O)c1ccccc1)NCc1cccnc1 [CCC-Lu25-51] | > 50 | 80 | – | – | –
Cc1nc2ccc(NC(=O)c3ccc(S(=O)(=O)N(C)Cc4ccccc4)cc3)cc2s1 [IHVR-13006] | 5.9 | 50 | – | – | inhibition at 0.3 µM (HBV cccDNA): 2%; inhibition at 1 µM (HBV cccDNA; Concentration 1 μM): 50%
O=C(CN(c1cc(C(F)(F)F)ccc1Cl)S(=O)(=O)c1ccc(F)cc1)NCc1ccncc1 [CCC-Lu25-20] | > 50 | 20 | 60 | 70 | –
CN1CCN(c2ccc(CNC(=O)CN(c3cc(C(F)(F)F)ccc3Cl)S(=O)(=O)c3ccccc3)cc2)CC1 [IHVR-29022] | 49.5 | 30 | – | – | –
Cc1cc2cc(NC(=O)c3ccc(S(=O)(=O)N(C)Cc4ccccc4)cc3)ccc2[nH]1 [IHVR-13003-1] | > 50 | 3 | 5 | 10 | –
CN1CCN(c2cccc(CNC(=O)CN(c3cc(C(F)(F)F)ccc3Cl)S(=O)(=O)c3ccccc3)c2)CC1 [IHVR-29023] | 38.7 | 30 | – | – | –
